A short description of data set [1]: Exposure profiles of Deg-AZM and metabolites in rat plasma, urine, feces and bile (UPLC-QTOF-MS). The following applies: / = not detected; for Proportion in total related substances, Feces: rat feces 0-24 h; for Proportion in total related substances, Plasma: rat plasma 0.167-8 h after oral Deg-AZM, by AUC0-t of chromatographic peak area; for Proportion in total related substances, Urine: rat urine 0-24 h. Type of data set: in vivo, rats. The procedure:
(§1) The plasma samples at 0.167 h, 0.5 h, 3 h and 8 h after administration were obtained from the study of tissue distribution in rats ([Gu et al., 2024]). Urine, feces and bile samples at 0–24 h after administration were obtained from the excretion study of a single gavage administration of 25 mg/kg Deg-AZM in rats ([Gu et al., 2024]).
Plasma samples were precipitated with methanol at a ratio of 1:3. Urine samples were diluted with 50% methanol at a ratio of 1:80. The feces was thoroughly ground and sonicated with a 50% methanol at a ratio of 1 g/10 mL to obtain the homogenate, then the homogenate were precipitated with methanol at a ratio of 1:1. Bile samples were precipitated with 50% methanol at a ratio of 1:1. The above obtained samples were vortexed for 1 min and centrifugated at 4°C, 12,000 rpm for 10 min. Finally, the upper layer was analyzed using the UPLC-QTOF-MS system.
The metabolites of Deg-AZM in the plasma, urine, feces and bile samples were identified by UPLC-QTOF-MS system. Liquid chromatography was performed on an ACQUITY UPLC^TM I-Class UPLC unit with a Waters ACQUITY UPLC HSS T3 (100 × 2.1 mm, 1.8 µm). A gradient program was employed with the mobile phase combining solvent A (0.02% formic acid in 5% acetonitrile) and solvent B (acetonitrile) as follows: 100% A (0–0.5 min), 100%–85% A (0.5–7 min), 85%–5% A (7–9 min), 5% A (9–12 min), 5%–100% A (12–15 min). The flow rate was 0.40 mL/min. The column temperature was maintained at 40°C.
A Waters Q-TOF Xevo G2-XS Spectrometer equipped with ESI source under positive ion mode was utilized to conduct mass spectrometry detection, for which the MS^E mode was set at the mass range of 100–1,000 Da. The cone voltage was 40 V. The desolvation temperature was set at 500°C and source temperature was 100°C. The desolvation gas flow rate was 800 L/h and the cone gas flow rate was 50 L/h. In MS^E centroid mode, the MS data were acquired with the low energy function in the trap collision energy (6 eV), and the tandem mass data were acquired with the high energy function in the ramp trap collision energy (35–45 eV).
The extraction ion chromatogram of plasma samples at 0.167 h, 0.5 h, 3 h and 8 h after administration of Deg-AZM in rats was shown in Figure 2. The extraction ion chromatogram of urine, feces and bile samples collected from 0 to 24 h after oral administration of Deg-AZM in rats was shown in Figure 3. The AUC0-t of Deg-AZM and its metabolites in plasma sample were calculated by trapezoidal rule based on the chromatographic peak area. 21 metabolites were found in rat plasma, with M0 (Deg-AZM) and metabolite M2 (demethylated) being the main exposure forms in rat plasma. M0 and M2 accounted for 61.6% and 23.0% of the total related substances in rat plasma, respectively. The relative proportions of Deg-AZM and its metabolites in urine, feces and bile samples were evaluated by the chromatographic peak area, as shown in Figure 4. The detailed proportion of Deg-AZM and its metabolites could be found in Supplementary Table S1. M0 and 28 metabolites were found in the urine of rats. […] M0 and 42 metabolites were found in the feces of rats. Metabolite M1-2 (monohydroxylation, 18.1%) and metabolite M2 (16.6%) were the main forms of fecal excretion of Deg-AZM in rats after oral administration. M0 and 38 metabolites were found in the bile samples of rats. Metabolite M1-2 (monohydroxylation, 19.2%) and metabolite M2 (16.5%) were the main forms of biliary excretion of Deg-AZM in rats after oral administration.

A short description of data set [2]: Excretion and material balance in rats (urine, feces 0-24 h). Type of data set: in vivo. Conditions: through the kidneys and urine. The procedure:
as §1
The types and proportions of metabolites in the excretion pathway were elucidated in this study. […] Based on the peak area in this study, the total amount of metabolites in urine and feces of rats was 0.589 times and 9.96 times that of the original form of Deg-AZM, respectively. The total amount of Deg-AZM excreted in its original form and various metabolites in urine and feces was 23.7% and 19.8% of the administered dose, respectively, with a material balance coefficient of 43.5%. Deg-AZM was mainly excreted in the form of its original form M0 (cumulative excretion fraction of 14.9%) and metabolite M2 (cumulative excretion fraction of 5.33%) through the kidneys and urine, and in the form of metabolite M1-2 (cumulative excretion fraction of 4.29%) and M2 (cumulative excretion fraction of 3.93%) through the intestines and feces. […] It is necessary to obtain standard samples of the main metabolites for accurate quantification or use isotope tracing techniques to further improve material balance research in the clinical stage.

The test system of another data set is CYP1A2. The data set is described as follows: CYP induction (mRNA, qPCR) in human hepatocytes. Type of data set: in vitro ADME. The following applies: positive control 50 μM. From the text:
(§2) After culture and complete induction, total mRNA was extracted by TRNzol RNA Extraction Kit (purchased from Tiangen Biochemical Technology Co., Ltd., Beijing). The RNA was reverse transcribed into cDNA according to the instructions of the Transcriptor First Strand cDNA Synthesis Kit (purchased from Roche, Switzerland). Using reverse transcribed cDNA as a template, amplifying the internal reference genes of β-Actin of the sample and target genes of CYP1A2, CYP2B6, and CYP3A4 respectively to compare the expression differences.
Background: Real-time PCR tracks product formation cycle by cycle.

The next data set relates to CYP2B6. Kind of data set: CYP induction (mRNA, qPCR) in human hepatocytes. The following applies: positive control 1 mM.
Source text: as §2

The nature of data set [3]: Bidirectional transport in Caco-2 cell monolayer. The class given is in vitro ADME, human. Conditions: human, Caco-2, efflux positive control, (−) without quinidine. The procedure:
(§3) The human colon adenocarcinoma Caco-2 cell line was provided by Institute of Basic Medicine, Chinese Academy of Medical Sciences (Beijing, China). Caco-2 cells were cultured in a high sugar DMEM medium containing 10% (v/v) fetal bovine serum at 37°C and 5% CO2 incubator. Caco-2 cells (2.5 ×10^5/mL) was inoculated into Transwell polycarbonate membrane 12 well plate. The culture medium was changed every 2 days for the first 14 days, and then every day. After 21 consecutive days, fully differentiated cell monolayers were obtained for drug transport assays.
(§4) Transepithelial electrical resistance (TEER) was used to indicate monolayer integrity. The electrode of the Millcell ERS-2 voltammeter was placed in HBSS solution for 20 min to pre-balance. At the same time, the culture medium was removed from the Transwell culture plate, 0.5 mL of pre-heated HBSS solution was added into the Apical (AP) of transwell, 1.5 mL of pre-heated HBSS solution was added into the Basolateral (BL) of transwell. After that, the transwell was balanced at 37°C for 20 min and then replaced the HBSS solution with the pre-heated HBSS solution, the TEER value was measured finally. Caco-2 cell monolayers with TEER >350 Ω cm^2 which means that the cells have formed a tight monolayer, were used for the experiment. The TEER value was calculated according to the following formula: TEER=TEERT ‐ TEERc×A where TEERT represented the TEER value (Ω) of the measured Transwell chamber with Caco-2 cells, TEERC was the TEER value (Ω) of the transwell chamber in the control group, and A was the membrane area of the transwell cavity (1.12 cm^2 in this experiment).
(§5) In order to evaluate the usability of the Transwell model research, [^3H] Propranolol (0.5 μCi/mL) and [^14C] PEG4000 (1 μCi/mL) served as high-permeability and impermeability controls to verify the uptake direction on Caco-2 cell monolayer, respectively. Rhodamine 123 was used as a positive control for efflux mechanism in bidirectional transport assay on Caco-2 cell monolayer.
(§6) The transmembrane permeability of Deg-AZM (2, 10 or 50 µM) and the potential to inhibit P-gp by Deg-AZM (2, 10 or 50 µM) were evaluated using Caco-2 cell monolayer both apical-to-basolateral (A-B) and basolateral-to-apical (B-A) directions at 37°C for 1 h, the experiments were conducted using quinidine (50 μM) as the inhibitor for P-gp. At the end of incubation, receiver and donor samples were both diluted by assay buffer and analyzed by LC-MS/MS.
Background: Passage across Caco-2 layers is used to estimate intestinal permeability.

In the next data set the test system is T1, P-gp.
T1 construct: evaluated using Caco-2 cell monolayer both apical-to-basolateral (A-B) and basolateral-to-apical (B-A) directions; endogenous in cells; host or cells: Caco-2
Kind of data set: Bidirectional transport in Caco-2 cell monolayer with P-gp inhibitor quinidine. Conditions: human, Caco-2, with quinidine 50 μM; efflux positive control, (+) quinidine; n = 3. The class given is in vitro ADME, human. The method, then:
as §3, §4, §5, §6

The next data set concerns Caco-2 cell monolayer. Kind of data set: Bidirectional transport in Caco-2 cell monolayer. Conditions: 0.5 μCi/mL, high-permeability control; n = 3. The class given is in vitro ADME, human. The procedure: as §3, §4, §5, §6
Setting [4] is: single gavage 25 mg/kg Deg-AZM, by peak area.
Where [5] appears, read: single gavage 25 mg/kg Deg-AZM, by peak area, 25 mg/kg.

In general, Papp A→B refers to how fast a substance crosses the layer from the apical side. Read a high Papp A→B as ready permeation. A word on the Papp B→A: it is how fast a substance crosses the layer from the basolateral side.

On to `CCC1OC(=O)C(C)C(O)C(C)C(O)C(C)(O)CC(C)CNC(C)C(O)C1(C)O` (centres unmarked) [M2], for which, in data set [1] (rat bile 0-24 h, single gavage 25 mg/kg Deg-AZM, by peak area), the “Proportion in total related substances, Bile” value amounted to 16.5%. For the same compound, in data set [1] (setting [4]), the “Proportion in total related substances, Feces” value is 16.6% and the “Proportion in total related substances, Urine” value turned out to be 22.5%. The “Proportion in total related substances, Plasma” value in data set [1] turned out to be 23.0%. For the same compound, the “Cumulative excretion fraction, urine” value in data set [2] is recorded as 5.33%.

Consider `CCC(O)C(C)(O)C(O)C(C)N(C)CC(C)CC(C)(O)C(O)C(C)C(O)C(C)C(=O)O` (centres unmarked) [M11], for which, in data set [1] (setting [5]), the “Proportion in total related substances, Feces” value is 1.24% and the “Proportion in total related substances, Urine” value amounted to 0.224%. Moreover, in data set [1], the “Proportion in total related substances, Plasma” value was 2.04%.

On to `COc1ccc2[nH]c([S+]([O-])Cc3ncc(C)c(OC)c3C)nc2c1` (centres unmarked) [Omeprazole, reference compound], for which the figures for the “CYP1A2 mRNA induction, times of control group” value with CYP1A2 (hepatocyte batch HUB), with CYP1A2 (hepatocyte batch LHuf 17905B) and in the data set on CYP1A2 (hepatocyte batch MWB) were 48.2, 56.0 and 64.6, respectively.

For the compound `CCC1(c2ccccc2)C(=O)NC(=O)NC1=O` [Phenobarbital, reference compound], the “CYP2B6 mRNA induction, times of control group” value amounted to 13.5 with CYP2B6 (hepatocyte batch HUB), 10.3 in the data set with CYP2B6 (hepatocyte batch LHuf 17905B) and 14.7 in the data set with CYP2B6 (hepatocyte batch MWB).

In data set [3] (n = 3), `COC(=O)c1ccccc1-c1c2ccc(=N)cc-2oc2cc(N)ccc12` [Rhodamine 123, reference compound] yielded a Papp A→B of 0.0031 ± 0.00141 ×10⁻⁶ cm/s and a basolateral-to-apical permeability (Papp B→A) of 0.166 ± 0.0287 ×10⁻⁶ cm/s. In addition, in data set [3] (read-out: ER), the efflux ratio was 53.5. Further, in the data set with P-gp, the Papp A→B stood at 0.00478 ± 0.000709 ×10⁻⁶ cm/s and the Papp B→A amounted to 0.0417 ± 0.0152 ×10⁻⁶ cm/s.

Take `CC(C)NCC(O)COc1cccc2ccccc12` (centres unmarked) [[^3H] Propranolol, reference compound]: the “P app AP→BL” value with Caco-2 cell monolayer was 9.64 ± 1.05 ×10^–6 cm/s.

The values are drawn from paper PMC11750672, “The in vivo metabolic pathway of Deg-AZM and in vitro investigations into the contribution of drug metabolizing enzymes and drug transporters in the drug interactions of Deg-AZM, a clinical-stage new transgelin agonist” (Frontiers in Pharmacology, 2025).
